Measured values from patent publication US20170066795A1, “SOLID PRODRUG FORMS OF 2'-CHLORO-2'-METHYL URIDINE FOR HCV” (IDENIX PHARMACEUTICALS LLC, priority 2014, published 2017).
Like-named read-outs stand apart in the source and are kept apart here.

Assays:
genotype 2 or 3 HCV = assay: Example 3 Part II: Compound I QD x 7 days in treatment-naïve Genotype 2, 3, 4, 5 and 6 HCV-infected subjects, viral load (HCV RNA); type: in vivo; conditions: 300 mg/day for 7 days
Procedure: (§1) This part were a randomized, open-label, parallel group study in treatment-naïve, Genotype 2, 3, 4, 5 and 6 HCV-infected subjects. Thirty (30) subjects were randomized across the treatment arms specified below.
(§2) Dosing, sampling, and analyses for Parts I and II were made according to Tables A and B.
(§3) Compound I was provided as size 0, white, hard hydroxypropyl methylcellulose (HPMC) capsules for oral administration at 5 mg, 25 mg and 50 mg strengths. The same powder blend containing 33.3% weight/weight (w/w) Compound I, a diluent, and a disintegrant is used to fill the capsules for all dose strengths. Matching placebo capsules will also be provided. Storage conditions will be provided on the study drug container label.
(§4) Dosing occurred between approximately 08:00 AM and 10:00 AM on each dosing day. Water was permitted ad libitum except for 1 hour before and after dosing. Dosing was immediately followed by administration of 240 mL (8 oz.) of water. Meals and beverages served within 24 hours prior to and post dosing were xanthine-free and caffeine-free. Grapefruit and grapefruit juice were not allowed within 7 days before reporting to the clinic on Day −1 and through the end of the study.

[1] = Example 4 Group B: plasma pharmacokinetics in genotype 1 HCV-infected subjects (LC/MS/MS); conditions: human, in vivo, fasted; for AUC(0-inf) / Cmax / half-life: mean ± SD; for AUC(0-inf): read-out: AUC∞ of Compound I; for Cmax: read-out: Cmax of Compound I; for half-life: read-out: t1/2 of Compound I (converted); for Tmax: median, read-out: Tmax of Compound I
Procedure: (§5) Five sequential cohorts of 3 HCV-infected subjects (HCV) per cohort received under fasted conditions open-label Compound I at single ascending doses of 10, 25, 50, 150, and 300 mg (below, “Group B”).
Compound I was provided as size 0, white, hard hydroxypropyl methylcellulose (HPMC) capsules for oral administration at 5 mg, 25 mg, and 50 mg strengths. The same powder blend containing 33.3% weight/weight (w/w) Compound I, a diluent, and a disintegrant is used to fill the capsules for all dose strengths. Matching placebo capsules will also be provided. Storage conditions will be provided on the study drug container label.
(§6) For Groups A and B, dosing occurred between approximately 08:00 AM and 10:00 AM on each dosing day. Dosing was fasted for all subjects in Groups A and B. For fasted dosing, subjects observed a fasting period of approximately 10 hours prior to each dose and for an additional 4 hours post-dose.
Plasma samples were obtained up to 120 hours after dosing and the levels of Compound I and its Nucleoside metabolite were measured by using validated LC/MS/MS methodology. Plasma pharmacokinetic parameters were obtained by using non-compartmental analysis with parameters reported as mean±standard deviation (SD) except for Tmax where median (min-max) is shown.

[2] = Example 4 Group B: safety (adverse events) in genotype 1 HCV-infected subjects; type: in vivo, human
Procedure: as §5, §6
Safety measurements included clinical history, routine laboratory evaluation, physical examination, 12-lead ECG, vital signs, adverse event (AE) assessment.

Genotype 1 HCV = assay: Example 3 Part I: Compound I QD x 7 days in treatment-naïve Genotype 1 HCV-infected subjects, viral load (HCV RNA); type: in vivo; conditions: 300 mg/day for 7 days
Procedure: (§7) This part was a randomized, double-blind, placebo-controlled, parallel group study in treatment-naïve, Genotype 1 HCV-infected subjects. Thirty (30) subjects were randomized across the treatment arms specified below.
as §2, §3, §4

[3] = Example 3: tolerability (clinical and laboratory abnormalities) in HCV-infected subjects; type: in vivo, human; conditions: 50-300 mg QD x 7 days
Text: as §7, §1, §2

HCV = assay: Example 3 Parts I and II: antiviral activity across genotypes; type: in vivo; conditions: HCV-infected subjects, 50-300 mg QD x 7 days
Text: as §7, §1, §2

CC(C)OC(=O)[C@@H](C)N[P@@](=O)(OC[C@H]1O[C@@H](n2ccc(=O)[nH]c2=O)[C@](C)(Cl)[C@@H]1O)Oc1ccccc1 [Compound I]
response in genotype 2 versus genotype 3 HCV infection (genotype 2 or 3 HCV): similar | mean maximal viral load reduction (genotype 2 or 3 HCV; 10 genotype 2 or 3 HCV-infected patients): 4.3 logs | AUC(0-inf) ([1]; 10 mg single dose): 40 ± 12.6 ng·h/mL | Cmax ([1]; 10 mg single dose): 26.1 ± 11.9 ng/mL | half-life ([1]; 10 mg single dose): 1.47 ± 0.7 h | Tmax ([1]; 10 mg single dose): 0.5 h | AUC(0-inf) ([1]; 25 mg single dose): 140 ± 68.8 ng·h/mL | Cmax ([1]; 25 mg single dose): 68.4 ± 18.7 ng/mL | half-life ([1]; 25 mg single dose): 0.97 ± 0.29 h | Tmax ([1]; 25 mg single dose): 1 h | AUC(0-inf) ([1]; 50 mg single dose): 197 ± 40.1 ng·h/mL | Cmax ([1]; 50 mg single dose): 91.9 ± 10.7 ng/mL | half-life ([1]; 50 mg single dose): 1.19 ± 0.46 h | Tmax ([1]; 50 mg single dose): 1 h | AUC(0-inf) ([1]; 150 mg single dose): 664 ± 160 ng·h/mL | Cmax ([1]; 150 mg single dose): 297 ± 34 ng/mL | half-life ([1]; 150 mg single dose): 1.13 ± 0.29 h | Tmax ([1]; 150 mg single dose): 0.5 h | AUC(0-inf) ([1]; 300 mg single dose): 818 ± 256 ng·h/mL | Cmax ([1]; 300 mg single dose): 367 ± 537 ng/mL | half-life ([1]; 300 mg single dose): 1.58 ± 0.02 h | Tmax ([1]; 300 mg single dose): 1 h | Adverse event: Constipation ([2]; 10 mg single dose (n = 3)): 0 n, % | Adverse event: Diarrhea ([2]; 10 mg single dose (n = 3)): 0 n, % | Adverse event: Dry mouth ([2]; 10 mg single dose (n = 3)): 0 n, % | Adverse event: Dry skin ([2]; 10 mg single dose (n = 3)): 0 n, % | Adverse event: Dysuria ([2]; 10 mg single dose (n = 3)): 0 n, % | Adverse event: Fatigue ([2]; 10 mg single dose (n = 3)): 0 n, % | Adverse event: Feces hard ([2]; 10 mg single dose (n = 3)): 0 n, % | Adverse event: Flatulence ([2]; 10 mg single dose (n = 3)): 0 n, % | Adverse event: Headache ([2]; 10 mg single dose (n = 3)): 0 n, % | Adverse event: Myalgia ([2]; 10 mg single dose (n = 3)): 1 (33.3) n, % | Adverse event: Neck pain ([2]; 10 mg single dose (n = 3)): 0 n, % | Adverse event: Pruritus ([2]; 10 mg single dose (n = 3)): 0 n, % | Adverse event: Pruritus generalized ([2]; 10 mg single dose (n = 3)): 0 n, % | Adverse event: Vessel puncture site bruise ([2]; 10 mg single dose (n = 3)): 0 n, % | Subjects with AE ([2]; 10 mg single dose (n = 3)): 1 (33.3) n, % | Adverse event: Constipation ([2]; 25 mg single dose (n = 3)): 1 (33.3) n, % | Adverse event: Diarrhea ([2]; 25 mg single dose (n = 3)): 0 n, % | Adverse event: Dry mouth ([2]; 25 mg single dose (n = 3)): 0 n, % | Adverse event: Dry skin ([2]; 25 mg single dose (n = 3)): 0 n, % | Adverse event: Dysuria ([2]; 25 mg single dose (n = 3)): 0 n, % | Adverse event: Fatigue ([2]; 25 mg single dose (n = 3)): 1 (33.3) n, % | Adverse event: Feces hard ([2]; 25 mg single dose (n = 3)): 0 n, % | Adverse event: Flatulence ([2]; 25 mg single dose (n = 3)): 1 (33.3) n, % | Adverse event: Headache ([2]; 25 mg single dose (n = 3)): 1 (33.3) n, % | Adverse event: Myalgia ([2]; 25 mg single dose (n = 3)): 0 n, % | Adverse event: Neck pain ([2]; 25 mg single dose (n = 3)): 1 (33.3) n, % | Adverse event: Pruritus ([2]; 25 mg single dose (n = 3)): 0 n, % | Adverse event: Pruritus generalized ([2]; 25 mg single dose (n = 3)): 0 n, % | Adverse event: Vessel puncture site bruise ([2]; 25 mg single dose (n = 3)): 0 n, % | Subjects with AE ([2]; 25 mg single dose (n = 3)): 2 (66.7) n, % | Adverse event: Constipation ([2]; 50 mg single dose (n = 3)): 0 n, % | Adverse event: Diarrhea ([2]; 50 mg single dose (n = 3)): 0 n, % | Adverse event: Dry mouth ([2]; 50 mg single dose (n = 3)): 0 n, % | Adverse event: Dry skin ([2]; 50 mg single dose (n = 3)): 0 n, % | Adverse event: Dysuria ([2]; 50 mg single dose (n = 3)): 1 (33.3) n, % | Adverse event: Fatigue ([2]; 50 mg single dose (n = 3)): 0 n, % | Adverse event: Feces hard ([2]; 50 mg single dose (n = 3)): 0 n, % | Adverse event: Flatulence ([2]; 50 mg single dose (n = 3)): 0 n, % | Adverse event: Headache ([2]; 50 mg single dose (n = 3)): 0 n, % | Adverse event: Myalgia ([2]; 50 mg single dose (n = 3)): 0 n, % | Adverse event: Neck pain ([2]; 50 mg single dose (n = 3)): 0 n, % | Adverse event: Pruritus ([2]; 50 mg single dose (n = 3)): 0 n, % | Adverse event: Pruritus generalized ([2]; 50 mg single dose (n = 3)): 0 n, % | Adverse event: Vessel puncture site bruise ([2]; 50 mg single dose (n = 3)): 0 n, % | Subjects with AE ([2]; 50 mg single dose (n = 3)): 1 (33.3) n, % | Adverse event: Constipation ([2]; 150 mg single dose (n = 3)): 0 n, % | Adverse event: Diarrhea ([2]; 150 mg single dose (n = 3)): 0 n, % | Adverse event: Dry mouth ([2]; 150 mg single dose (n = 3)): 1 (33.3) n, % | Adverse event: Dry skin ([2]; 150 mg single dose (n = 3)): 1 (33.3) n, % | Adverse event: Dysuria ([2]; 150 mg single dose (n = 3)): 0 n, % | Adverse event: Fatigue ([2]; 150 mg single dose (n = 3)): 1 (33.3) n, % | Adverse event: Feces hard ([2]; 150 mg single dose (n = 3)): 0 n, % | Adverse event: Flatulence ([2]; 150 mg single dose (n = 3)): 0 n, % | Adverse event: Headache ([2]; 150 mg single dose (n = 3)): 0 n, % | Adverse event: Myalgia ([2]; 150 mg single dose (n = 3)): 0 n, % | Adverse event: Neck pain ([2]; 150 mg single dose (n = 3)): 0 n, % | Adverse event: Pruritus ([2]; 150 mg single dose (n = 3)): 1 (33.3) n, % | Adverse event: Pruritus generalized ([2]; 150 mg single dose (n = 3)): 1 (33.3) n, % | Adverse event: Vessel puncture site bruise ([2]; 150 mg single dose (n = 3)): 0 n, % | Subjects with AE ([2]; 150 mg single dose (n = 3)): 2 (66.7) n, % | Adverse event: Constipation ([2]; 300 mg single dose (n = 3)): 0 n, % | Adverse event: Diarrhea ([2]; 300 mg single dose (n = 3)): 1 (33.3) n, % | Adverse event: Dry mouth ([2]; 300 mg single dose (n = 3)): 0 n, % | Adverse event: Dry skin ([2]; 300 mg single dose (n = 3)): 0 n, % | Adverse event: Dysuria ([2]; 300 mg single dose (n = 3)): 0 n, % | Adverse event: Fatigue ([2]; 300 mg single dose (n = 3)): 0 n, % | Adverse event: Feces hard ([2]; 300 mg single dose (n = 3)): 1 (33.3) n, % | Adverse event: Flatulence ([2]; 300 mg single dose (n = 3)): 0 n, % | Adverse event: Headache ([2]; 300 mg single dose (n = 3)): 0 n, % | Adverse event: Myalgia ([2]; 300 mg single dose (n = 3)): 0 n, % | Adverse event: Neck pain ([2]; 300 mg single dose (n = 3)): 0 n, % | Adverse event: Pruritus ([2]; 300 mg single dose (n = 3)): 0 n, % | Adverse event: Pruritus generalized ([2]; 300 mg single dose (n = 3)): 0 n, % | Adverse event: Vessel puncture site bruise ([2]; 300 mg single dose (n = 3)): 1 (33.3) n, % | Subjects with AE ([2]; 300 mg single dose (n = 3)): 2 (66.7) n, % | response in genotype 1a versus genotype 1b HCV infection (Genotype 1 HCV): similar | mean maximal viral load reduction (Genotype 1 HCV; 8 genotype 1 HCV-infected patients): 4.2 logs | tolerability [3]: well-tolerated with no observed patterns of clinical or laboratory abnormalities | antiviral activity across genotypes (HCV): potent pan-genotypic activity in a dose-dependent manner
